How the values were obtained:
[1] = system: Aspergillus niger ATCC 9029AA; experiment: Heat treatment of Aspergillus niger ATCC 9029AA spores in ice tea with natamycin, visual growth; assay type: cell-based; set-up: key to growth or no growth: growth (+); no growth (−)
Experimental: Commercially available ice tea (Lipton, peach flavor, non-carbonated, 1.5 L) was adjusted to high water hardness by adding 1 ml of a solution of 39 g CaCl2 and 27 g MgCl2 added to 934 g water. ⅓ of this ice tea preparation (the pH of which was 3.15) was left as-such, ⅓ of the preparation was enriched with 5 ppm natamycin and ⅓ of the preparation was enriched with 10 ppm natamycin. Samples of 5 ml were made from each preparation in 15 ml sterile plastic tubes. Of each preparation 8 samples were pre-heated to the desired pasteurization temperature using a water bath. Temperatures used were RT, 60, 65, 70, 75, 80, 85 and 90° C. When the desired temperature was reached, 100 μl of a 2500 spores/ml spore suspension of Aspergillus niger ATCC 9029AA was added to each tube. Subsequently, the samples were kept for 30 seconds at the temperature in question in the water bath. Next, the samples were cooled on ice to a temperature of 25° C. Samples were incubated at 25° C. and visually examined for growth (formation of mold flakes or turbidity) for two months. Additionally, samples were enumerated according to ISO protocol 21527-1.2008 on day 0 (before heat treatment) and day 1 (after heat treatment) to count immediate loss of viability. Enumeration was repeated after 1 month when samples remained free from visual mold growth; most counts were reduced to <10 after heat treatment, but were still able to grow. For the results, see Table 1.

[2] = LC-MS/MS analysis of natamycin and mycosamine in heated ice tea sample; assay type: physicochemical; details: 10 ppm natamycin at t=0, heated at 70° C.
Experimental: For the analysis of mycosamine at low concentrations (ppb level) a sample preparation is used with a cation exchange SPE material to isolate mycosamine from the sample matrix and/or remove possible interfering impurities therefrom. The analysis was performed on LC-MS/MS on a ZIC-HILIC column. For the identification and (semi) quantification a reference of mycosamine was prepared. The concentration of mycosamine in this reference was determined with ^1H-NMR.

C[C@@H]1C/C=C/C=C/C=C/C=C/[C@H](O[C@@H]2O[C@H](C)[C@@H](O)[C@H](N)[C@@H]2O)C[C@@H]2O[C@](O)(C[C@@H](O)C[C@H]3O[C@@H]3/C=C/C(=O)O1)C[C@H](O)[C@H]2C(=O)O [natamycin]
growth or no growth ([1]; 60°C, 5 ppm, day 1): − | growth or no growth ([1]; 60°C, 5 ppm, day 2): − | growth or no growth ([1]; 60°C, 5 ppm, day 3): − | growth or no growth ([1]; 60°C, 5 ppm, day 4): − | growth or no growth ([1]; 60°C, 5 ppm, day 5): − | growth or no growth ([1]; 60°C, 5 ppm, day 6): − | growth or no growth ([1]; 60°C, 5 ppm, day 7): + | growth or no growth ([1]; 60°C, 5 ppm, day 8): + | growth or no growth ([1]; 60°C, 5 ppm, day 9): + | growth or no growth ([1]; 60°C, 5 ppm, day 10): + | growth or no growth ([1]; 60°C, 5 ppm, day 11): + | growth or no growth ([1]; 60°C, 5 ppm, day 12): + | growth or no growth ([1]; 60°C, 5 ppm, day 13): + | growth or no growth ([1]; 60°C, 5 ppm, day 14): + | growth or no growth ([1]; 60°C, 5 ppm, day 15): + | growth or no growth ([1]; 60°C, 5 ppm, day 16): + | growth or no growth ([1]; 60°C, 5 ppm, day 17): + | growth or no growth ([1]; 60°C, 5 ppm, day 50): + | growth or no growth ([1]; 60°C, 10 ppm, day 1): − | growth or no growth ([1]; 60°C, 10 ppm, day 2): − | growth or no growth ([1]; 60°C, 10 ppm, day 3): − | growth or no growth ([1]; 60°C, 10 ppm, day 4): − | growth or no growth ([1]; 60°C, 10 ppm, day 5): − | growth or no growth ([1]; 60°C, 10 ppm, day 6): − | growth or no growth ([1]; 60°C, 10 ppm, day 7): − | growth or no growth ([1]; 60°C, 10 ppm, day 8): − | growth or no growth ([1]; 60°C, 10 ppm, day 9): − | growth or no growth ([1]; 60°C, 10 ppm, day 10): + | growth or no growth ([1]; 60°C, 10 ppm, day 11): + | growth or no growth ([1]; 60°C, 10 ppm, day 12): + | growth or no growth ([1]; 60°C, 10 ppm, day 13): + | growth or no growth ([1]; 60°C, 10 ppm, day 14): + | growth or no growth ([1]; 60°C, 10 ppm, day 15): + | growth or no growth ([1]; 60°C, 10 ppm, day 16): + | growth or no growth ([1]; 60°C, 10 ppm, day 17): + | growth or no growth ([1]; 60°C, 10 ppm, day 50): + | growth or no growth ([1]; 65°C, 5 ppm, day 1): − | growth or no growth ([1]; 65°C, 5 ppm, day 2): − | growth or no growth ([1]; 65°C, 5 ppm, day 3): − | growth or no growth ([1]; 65°C, 5 ppm, day 4): − | growth or no growth ([1]; 65°C, 5 ppm, day 5): − | growth or no growth ([1]; 65°C, 5 ppm, day 6): − | growth or no growth ([1]; 65°C, 5 ppm, day 7): − | growth or no growth ([1]; 65°C, 5 ppm, day 8): − | growth or no growth ([1]; 65°C, 5 ppm, day 9): − | growth or no growth ([1]; 65°C, 5 ppm, day 10): − | growth or no growth ([1]; 65°C, 5 ppm, day 11): − | growth or no growth ([1]; 65°C, 5 ppm, day 12): − | growth or no growth ([1]; 65°C, 5 ppm, day 13): − | growth or no growth ([1]; 65°C, 5 ppm, day 14): − | growth or no growth ([1]; 65°C, 5 ppm, day 15): − | growth or no growth ([1]; 65°C, 5 ppm, day 16): − | growth or no growth ([1]; 65°C, 5 ppm, day 17): − | growth or no growth ([1]; 65°C, 5 ppm, day 50): − | growth or no growth ([1]; 65°C, 10 ppm, day 1): − | growth or no growth ([1]; 65°C, 10 ppm, day 2): − | growth or no growth ([1]; 65°C, 10 ppm, day 3): − | growth or no growth ([1]; 65°C, 10 ppm, day 4): − | growth or no growth ([1]; 65°C, 10 ppm, day 5): − | growth or no growth ([1]; 65°C, 10 ppm, day 6): − | growth or no growth ([1]; 65°C, 10 ppm, day 7): − | growth or no growth ([1]; 65°C, 10 ppm, day 8): − | growth or no growth ([1]; 65°C, 10 ppm, day 9): − | growth or no growth ([1]; 65°C, 10 ppm, day 10): − | growth or no growth ([1]; 65°C, 10 ppm, day 11): − | growth or no growth ([1]; 65°C, 10 ppm, day 12): − | growth or no growth ([1]; 65°C, 10 ppm, day 13): − | growth or no growth ([1]; 65°C, 10 ppm, day 14): − | growth or no growth ([1]; 65°C, 10 ppm, day 15): − | growth or no growth ([1]; 65°C, 10 ppm, day 16): − | growth or no growth ([1]; 65°C, 10 ppm, day 17): − | growth or no growth ([1]; 65°C, 10 ppm, day 50): − | germination ([1]; 70° C., in the presence of natamycin): no germination occurred | growth or no growth ([1]; 70°C, 5 ppm, day 1): − | growth or no growth ([1]; 70°C, 5 ppm, day 2): − | growth or no growth ([1]; 70°C, 5 ppm, day 3): − | growth or no growth ([1]; 70°C, 5 ppm, day 4): − | growth or no growth ([1]; 70°C, 5 ppm, day 5): − | growth or no growth ([1]; 70°C, 5 ppm, day 6): − | growth or no growth ([1]; 70°C, 5 ppm, day 7): − | growth or no growth ([1]; 70°C, 5 ppm, day 8): − | growth or no growth ([1]; 70°C, 5 ppm, day 9): − | growth or no growth ([1]; 70°C, 5 ppm, day 10): − | growth or no growth ([1]; 70°C, 5 ppm, day 11): − | growth or no growth ([1]; 70°C, 5 ppm, day 12): − | growth or no growth ([1]; 70°C, 5 ppm, day 13): − | growth or no growth ([1]; 70°C, 5 ppm, day 14): − | growth or no growth ([1]; 70°C, 5 ppm, day 15): − | growth or no growth ([1]; 70°C, 5 ppm, day 16): − | growth or no growth ([1]; 70°C, 5 ppm, day 17): − | growth or no growth ([1]; 70°C, 5 ppm, day 50): − | growth or no growth ([1]; 70°C, 10 ppm, day 9): − | growth or no growth ([1]; 70°C, 10 ppm, day 10): − | growth or no growth ([1]; 70°C, 10 ppm, day 11): − | growth or no growth ([1]; 70°C, 10 ppm, day 12): − | growth or no growth ([1]; 70°C, 10 ppm, day 13): − | growth or no growth ([1]; 70°C, 10 ppm, day 14): − | growth or no growth ([1]; 70°C, 10 ppm, day 15): − | growth or no growth ([1]; 70°C, 10 ppm, day 16): − | growth or no growth ([1]; 70°C, 10 ppm, day 17): − | growth or no growth ([1]; 70°C, 10 ppm, day 50): − | germination ([1]; RT and 60° C., 5 ppm natamycin): delayed germination | germination ([1]; RT and 60° C., 10 ppm natamycin): longer delay | natamycin found in sample ([2]; Example 1 ice tea sample (pH 3.15)): < 0.04 mg/L | natamycin found in sample ([2]; Example 2 ice tea sample): < 0.04 mg/L | natamycin found in sample ([2]; Example 3 ice tea sample): < 0.04 mg/L
